Measured values from PubChem BioAssay (NCI).
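In this assay, cells in 96-well plates receive the compound at five concentrations for 48 hours. Endpoints are linearly interpolated between the surrounding concentrations. Abbreviation: GI50, concentration required for 50% inhibition of growth. TGI marks complete inhibition of growth.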

Key:
Experiment in all cases: growth of human tumour cells (NCI), 48 h
786-0 renal = test system: 786-0 renal
A498 renal = test system: A498 renal
ACHN renal = test system: ACHN renal
BT-549 breast = test system: BT-549 breast
COLO 205 colon = test system: COLO 205 colon
DU-145 prostate = test system: DU-145 prostate
HL-60(TB) leukemia = test system: HL-60(TB) leukemia
HOP-62 NSCLC = test system: HOP-62 NSCLC
HOP-92 NSCLC = test system: HOP-92 NSCLC
HS 578T breast = test system: HS 578T breast
HT29 colon = test system: HT29 colon
IGROV1 ovarian = test system: IGROV1 ovarian
M14 melanoma = test system: M14 melanoma
MDA-MB-231 breast = test system: MDA-MB-231 breast
MDA-MB-435 = test system: MDA-MB-435
NCI-H23 lung = test system: NCI-H23 lung
NCI-H522 lung = test system: NCI-H522 lung
OVCAR-3 ovarian = test system: OVCAR-3 ovarian
RXF 393 renal = test system: RXF 393 renal
SF-268 CNS = test system: SF-268 CNS
SF-295 CNS = test system: SF-295 CNS
SF-539 CNS = test system: SF-539 CNS
SK-MEL-2 melanoma = test system: SK-MEL-2 melanoma
SK-OV-3 ovarian = test system: SK-OV-3 ovarian
SNB-19 CNS = test system: SNB-19 CNS
SNB-75 CNS = test system: SNB-75 CNS
TK-10 renal = test system: TK-10 renal
U251 CNS = test system: U251 CNS
UACC-62 melanoma = test system: UACC-62 melanoma
CCRF-CEM leukemia = test system: CCRF-CEM leukemia
EKVX NSCLC = test system: EKVX NSCLC
HCC-2998 colon = test system: HCC-2998 colon
HCT-116 colon = test system: HCT-116 colon
K-562 leukemia = test system: K-562 leukemia
KM12 colon = test system: KM12 colon
LOX IMVI melanoma = test system: LOX IMVI melanoma
MALME-3M melanoma = test system: MALME-3M melanoma
MOLT-4 leukemia = test system: MOLT-4 leukemia
NCI-H226 lung = test system: NCI-H226 lung
NCI-H460 lung = test system: NCI-H460 lung
NCI/ADR-RES ovarian = test system: NCI/ADR-RES ovarian
OVCAR-5 ovarian = test system: OVCAR-5 ovarian
OVCAR-8 ovarian = test system: OVCAR-8 ovarian
PC-3 prostate = test system: PC-3 prostate
RPMI-8226 leukemia = test system: RPMI-8226 leukemia
SK-MEL-28 melanoma = test system: SK-MEL-28 melanoma
SK-MEL-5 melanoma = test system: SK-MEL-5 melanoma
SR leukemia = test system: SR leukemia
T-47D breast = test system: T-47D breast
UACC-257 melanoma = test system: UACC-257 melanoma
UO-31 renal = test system: UO-31 renal

CCCCCN1C(=O)/C(=c2\sc3n(c2=O)C2C(NN=3)N(CC)C(=O)N2CC)c2ccccc21 (centres undefined)
GI50 (786-0 renal): 1590 nM
TGI (786-0 renal): 3270 nM
GI50 (A498 renal): 274 nM
TGI (A498 renal): 1670 nM
GI50 (ACHN renal): 1170 nM
TGI (ACHN renal): 2580 nM
GI50 (BT-549 breast): 2410 nM
TGI (BT-549 breast): 10700 nM
GI50 (COLO 205 colon): 1550 nM
TGI (COLO 205 colon): 3560 nM
GI50 (DU-145 prostate): 2010 nM
TGI (DU-145 prostate): 4520 nM
GI50 (HL-60(TB) leukemia): 1910 nM
TGI (HL-60(TB) leukemia): 4070 nM
GI50 (HOP-62 NSCLC): 1620 nM
TGI (HOP-62 NSCLC): 3830 nM
GI50 (HOP-92 NSCLC): 1220 nM
TGI (HOP-92 NSCLC): 3720 nM
GI50 (HS 578T breast): 1030 nM
TGI (HS 578T breast): 4480 nM
GI50 (HT29 colon): 1650 nM
TGI (HT29 colon): 3020 nM
GI50 (IGROV1 ovarian): 1650 nM
TGI (IGROV1 ovarian): 4150 nM
GI50 (M14 melanoma): 1280 nM
TGI (M14 melanoma): 3980 nM
GI50 (MDA-MB-231 breast): 1870 nM
TGI (MDA-MB-231 breast): 4340 nM
GI50 (MDA-MB-435): 320 nM
TGI (MDA-MB-435): 1080 nM
GI50 (NCI-H23 lung): 1830 nM
TGI (NCI-H23 lung): 5230 nM
GI50 (NCI-H522 lung): 754 nM
TGI (NCI-H522 lung): 2290 nM
GI50 (OVCAR-3 ovarian): 1410 nM
TGI (OVCAR-3 ovarian): 3010 nM
GI50 (RXF 393 renal): 798 nM
TGI (RXF 393 renal): 2830 nM
GI50 (SF-268 CNS): 1490 nM
TGI (SF-268 CNS): 3770 nM
GI50 (SF-295 CNS): 833 nM
TGI (SF-295 CNS): 3210 nM
GI50 (SF-539 CNS): 1300 nM
TGI (SF-539 CNS): 2610 nM
GI50 (SK-MEL-2 melanoma): 1550 nM
TGI (SK-MEL-2 melanoma): 3300 nM
GI50 (SK-OV-3 ovarian): 1440 nM
TGI (SK-OV-3 ovarian): 2920 nM
GI50 (SNB-19 CNS): 1880 nM
TGI (SNB-19 CNS): 5250 nM
GI50 (SNB-75 CNS): 260 nM
TGI (SNB-75 CNS): 1370 nM
GI50 (TK-10 renal): 1800 nM
TGI (TK-10 renal): 3440 nM
GI50 (U251 CNS): 1310 nM
TGI (U251 CNS): 2720 nM
GI50 (UACC-62 melanoma): 1060 nM
TGI (UACC-62 melanoma): 3290 nM

COc1ccc2nc3c(n2c1)C(=O)C(=O)c1ccccc1-3
GI50 (786-0 renal): 2070 nM
TGI (786-0 renal): 4400 nM
GI50 (A498 renal): 2440 nM
TGI (A498 renal): 6110 nM
GI50 (ACHN renal): 1460 nM
TGI (ACHN renal): 2770 nM
GI50 (BT-549 breast): 1390 nM
TGI (BT-549 breast): 2690 nM
GI50 (CCRF-CEM leukemia): 2600 nM
TGI (CCRF-CEM leukemia): 6620 nM
GI50 (COLO 205 colon): 2730 nM
TGI (COLO 205 colon): 8140 nM
GI50 (DU-145 prostate): 1660 nM
TGI (DU-145 prostate): 3180 nM
GI50 (EKVX NSCLC): 1800 nM
TGI (EKVX NSCLC): 4830 nM
GI50 (HCC-2998 colon): 1830 nM
TGI (HCC-2998 colon): 3630 nM
GI50 (HCT-116 colon): 1580 nM
TGI (HCT-116 colon): 3700 nM
GI50 (HL-60(TB) leukemia): 2230 nM
TGI (HL-60(TB) leukemia): 5570 nM
GI50 (HOP-92 NSCLC): 3090 nM
TGI (HOP-92 NSCLC): 9530 nM
GI50 (HT29 colon): 2590 nM
TGI (HT29 colon): 6190 nM
GI50 (IGROV1 ovarian): 1750 nM
TGI (IGROV1 ovarian): 5340 nM
GI50 (K-562 leukemia): 939 nM
TGI (K-562 leukemia): 6090 nM
GI50 (KM12 colon): 2050 nM
TGI (KM12 colon): 5040 nM
GI50 (LOX IMVI melanoma): 466 nM
TGI (LOX IMVI melanoma): 1890 nM
GI50 (M14 melanoma): 1750 nM
TGI (M14 melanoma): 3320 nM
GI50 (MALME-3M melanoma): 1550 nM
TGI (MALME-3M melanoma): 2930 nM
GI50 (MDA-MB-231 breast): 2530 nM
TGI (MDA-MB-231 breast): 10600 nM
GI50 (MDA-MB-435): 192 nM
TGI (MDA-MB-435): 353 nM
GI50 (MOLT-4 leukemia): 2430 nM
TGI (MOLT-4 leukemia): 5810 nM
GI50 (NCI-H226 lung): 2030 nM
TGI (NCI-H226 lung): 4890 nM
GI50 (NCI-H23 lung): 1160 nM
TGI (NCI-H23 lung): 4210 nM
GI50 (NCI-H460 lung): 1630 nM
TGI (NCI-H460 lung): 3650 nM
GI50 (NCI-H522 lung): 1540 nM
TGI (NCI-H522 lung): 3390 nM
GI50 (NCI/ADR-RES ovarian): 2060 nM
TGI (NCI/ADR-RES ovarian): 6580 nM
GI50 (OVCAR-5 ovarian): 1800 nM
TGI (OVCAR-5 ovarian): 3320 nM
GI50 (OVCAR-8 ovarian): 2410 nM
TGI (OVCAR-8 ovarian): 9360 nM
GI50 (PC-3 prostate): 1520 nM
TGI (PC-3 prostate): 9020 nM
GI50 (RPMI-8226 leukemia): 1520 nM
TGI (RPMI-8226 leukemia): 5360 nM
GI50 (RXF 393 renal): 1840 nM
TGI (RXF 393 renal): 3550 nM
GI50 (SF-268 CNS): 2050 nM
TGI (SF-268 CNS): 5150 nM
GI50 (SF-295 CNS): 1620 nM
TGI (SF-295 CNS): 3030 nM
GI50 (SF-539 CNS): 1820 nM
TGI (SF-539 CNS): 3240 nM
GI50 (SK-MEL-2 melanoma): 1830 nM
TGI (SK-MEL-2 melanoma): 3660 nM
GI50 (SK-MEL-28 melanoma): 1890 nM
TGI (SK-MEL-28 melanoma): 3520 nM
GI50 (SK-MEL-5 melanoma): 1670 nM
TGI (SK-MEL-5 melanoma): 3060 nM
GI50 (SK-OV-3 ovarian): 1750 nM
TGI (SK-OV-3 ovarian): 3570 nM
GI50 (SNB-19 CNS): 1980 nM
TGI (SNB-19 CNS): 4400 nM
GI50 (SNB-75 CNS): 1400 nM
TGI (SNB-75 CNS): 2770 nM
GI50 (SR leukemia): 2530 nM
TGI (SR leukemia): 6590 nM
GI50 (T-47D breast): 2020 nM
TGI (T-47D breast): 5500 nM
GI50 (TK-10 renal): 2620 nM
TGI (TK-10 renal): 4780 nM
GI50 (U251 CNS): 1510 nM
TGI (U251 CNS): 2850 nM
GI50 (UACC-257 melanoma): 1730 nM
TGI (UACC-257 melanoma): 3130 nM
GI50 (UACC-62 melanoma): 1470 nM
TGI (UACC-62 melanoma): 2900 nM
GI50 (UO-31 renal): 1310 nM
TGI (UO-31 renal): 2620 nM
